Measured values from US20050208496A1, “Methods of testing for bronchial asthma or chronic obstructive pulmonary disease” (Genox Research, Inc., priority 2002, published 2005).

System: mouse OVA antigen-exposed bronchial hypersensitivity model
Test: Quantitative PCR (ABI 7700) of selected genes using cDNA of the mouse OVA antigen-exposed bronchial hypersensitivity model
Type: in vivo
Conditions: OVA-administered group
Protocol: Eighty-eight genes, most of which were recognized as genes whose expression levels were altered in human and mouse, were selected from the genes narrowed down in Section 4. A quantitative PCR assay was carried out with ABI 7700 using cDNA from the human goblet cell differentiation model and using cDNA from the mouse OVA antigen-exposed bronchial hypersensitivity model.
The primers and TaqMan probe used in the assay with ABI 7700 were designed based on the information on the sequence of each gene utilizing Primer Express (PE Biosystems). The 5′ and 3′ ends of the TaqMan probe were labeled with FAM (6-carboxy-fluorescein) and TAMRA (6-carboxy-N,N,N′,N′-tetramethylrhodamine), respectively. The nucleotide sequences of oligonucleotides for the forward primer (F), reverse primer (R), and TaqMan probe (TP) for each gene are shown below. […]
Furthermore, similar quantitative analyses for the β-actin gene and the glyceraldehyde-3-phosphate dehydrogenase (GAPDH) gene as internal standards for correction were carried out to correct the difference of cDNA concentration in a sample. The copy number of the gene of interest was determined by correcting based on the determined copy numbers for the genes. […]

## ovalbumin [OVA antigen, ovalbumin antigen used for sensitization and inhalation to induce bronchial hypersensitivity in mice]
  expression levels of the respective genes (quantitative PCR, corrected with β-actin): significant variations
